These are literature values, as cited in US4530920A, “Nonapeptide and decapeptide analogs of LHRH, useful as LHRH agonist” (Syntex (U.S.A.) Inc., priority 1983, dated 1985).

The first series relates to LHRH activity. Particulars: 6-position Gly replaced by a D-amino acid; literature.
As for [D Ala^6 ]-LHRH, the “activity relative to LH-RH” value is “increased activity relative to LH-RH”.

In the case of [D-Leu^6 ]LHRH, the “activity relative to LH-RH” value is “increased activity relative to LH-RH”.

For the substance [D-Phe^6 ]LHRH, the “activity relative to LH-RH” value is given as “increased activity relative to LH-RH”.

With [D-Trp^6 ]LHRH, the “activity relative to LH-RH” value is “increased activity relative to LH-RH”.

Staying with this series, now noted: relative to LHRH; from Rivier et al. 1975 and Vale et al. 1979.
Take [D-Arg^6 ]LHRH: the “potency (times LHRH)” value is listed as 3.9 times LHRH.

With [D-Arg^6, Pro^9 -NHEt]LHRH, the “potency (times LHRH)” value is on record as 16.7 times LHRH.

Take [D-LYS^6]LHRH: the “potency (times LHRH)” value is 3.8 times LHRH.

Turning to [D-Trp^6 ]LHRH, the “potency (times LHRH)” value is 36 times LHRH.

Regarding [D-Trp^6, Pro^9 -NHEt]LHRH, the “potency (times LHRH)” value is listed as 144 times LHRH.
